Measurements from patent publication US6716613B1, “Metalloprotease having aggrecanase activity” (Yamanouchi Pharmaceutical Co., Ltd., priority 1999, dated 2004).

How the values were obtained:
[1] = system: rabbit knee joint cartilage primary culture cells; assay: Proteoglycan degradation/release in rabbit knee joint cartilage primary culture cells (35S label); assay type: cell-based; settings: for IC50: Oryctolagus cuniculus, read-out: proteoglycan degradation inhibition action (IC50)
Procedure: After killing a rabbit (Japanese white species, male, 1.0 to 1.5 kg) under excess anesthesia, a knee joint was excised and the cartilage layer on the joint surface was removed and finely cut using a surgical knife. The cut pieces were treated with trypsin-EDTA (0.25%-1 mM; mfd. by GIBCO-BRL) at 37° C. for 1 hour and then centrifuged at 1,500 rpm for 5 minutes, and the resulting precipitate was washed with DMEM. This was treated with collagenase A (0.15%; Boehringer-Mannheim)/DMEM at 37° C. for 3 to 4 hours, and then a nylon mesh filter (100 μm, mfd. by Falcon)-passed fraction was centrifuged at 1,500 rpm for 5 minutes to effect precipitation of cartilage cells. The cells were thoroughly washed with DMEM/10% FBS medium, suspended in DMEM/10% FBS medium to a density of 2×10^5 cells/ml and then inoculated in 200 μl/well portions into an I type collagen-coated 96 well plate (mfd. by Asahi Technoglass). Three days thereafter, the medium was changed to 200 μof DMEM/10% FBS medium containing 50 μg/ml of ascorbic acid (ascorbic acid medium hereinafter), and the culturing was continued for 3 days. When an I type collagen-coated 6 well plate (Asahi Technoglass) was used, the cell suspension was inoculated in 6 ml/well portions and cultured by carrying out the same medium exchange. These cells were used in the following test.
The rabbit knee joint cartilage primary culture cells of 96 well plate described in Example 11-1 were cultured for 2 days using 200 μl of the ascorbic acid medium supplemented with 10 μCi/ml in final concentration of Na2^35SO4 and labeled therewith, washed 3 times with 200 μl of the ascorbic acid medium and then cultured for 1 day using 200 μl of the ascorbic acid medium. After stimulation with IL-1β or all-trans retinoic acid and subsequent 0, 24, and 48 hours of culturing, the culture supernatants were recovered in 20 μl portions, and the radioactivity was measured using Top Count (mfd. by Packard).
Each of the compounds A, B, C and D selected by the screening system of Example 10-2 was added to the proteoglycan degradation system of rabbit knee joint cartilage primary culture cells just before the stimulation with 10 μM of all-trans retinoic acid, and their proteoglycan degradation inhibitory activities were examined.

[2] = system: MDTS6 mRNA; assay: Induction of MDTS6 mRNA expression in rabbit knee joint cartilage primary culture cells (RT-PCR); assay type: cell-based; settings: 10 ng/ml of IL-1β or 10 μM of all-trans retinoic acid; 2 and 6 hours
Procedure: After 3 days of culturing of the rabbit knee joint cartilage primary culture cells of 6 well plate described in Example 11-1 by changing the medium to ascorbic acid medium, 10 ng/ml of IL-1β or 10 μM of all-trans retinoic acid was added thereto, and total RNA samples 2 and 6 hours thereafter were prepared using ISOGEN (mfd. by Nippon Gene) in accordance with the attached instructions. Each of the samples was treated with DNase I (mfd. by Nippon Gene), subjected to phenol/chloroform treatment and then recovered by ethanol precipitation, and the thus purified total RNA was dissolved in DEPC-treated sterile water. Using random hexamers as primers, 1 μg of this total RNA was subjected to reverse transcription reaction and RNase H treatment using Thermoscript™ RT-PCR System (mfd. by GIBCO-BRL, catalog number 11146-016) in accordance with the attached instructions, and the product was diluted 10 times with sterile water and used as a cDNA sample. Using 5 μl of each of the thus obtained cDNA samples as the template and the oligoDNA sequences represented by SEQ ID NO:18 and SEQ ID NO:19 as primers, PCR was carried out under a condition of 94° C. for 2 minutes, 45 repetitions of a cycle of 94° C. for 30 seconds, 65° C. for 30 seconds and 72° C. for 30 seconds, and subsequent 72° C. for 10 minutes. […]

[3] = system: recombinant aggrecan G1G2; assay: Recombinant aggrecan G1G2 degradation by expressed MDTS6 proteins (western blotting); assay type: biochemical, human; settings: method of Example 7-3, anti-aggrecanase neoepitope antibody
Procedure: In Example 6, the medium 12 to 16 hours after introduction of the expression plasmid was replaced by a serum-free medium, and the culturing was continued for 32 to 36 hours to recover the culture supernatant. This culture supernatant was mixed with the recombinant aggrecan prepared in the foregoing, and the mixture was allowed to undergo the reaction at 37° C. overnight, subjected to SDS-PAGE, transferred on a PVDF membrane and blocked by the method described in Example 6 and then allowed to react with an anti-Hisx6 polyclonal antibody (sc-803; mfd. by Santa Cruz Biotechnology) and a horseradish peroxidase-labeled goat anti-rabbit IgG polyclonal antibody (mfd. by BML) in that order. After the reaction, the recombinant aggrecan was detected using an ECL western blotting system (mfd. by Amersham Pharmacia). As a result, degraded fragment of the recombinant aggrecan, which was not found in the control in which only the […] was introduced, was detected (FIG. 2).
Aggrecanase is a metalloprotease which selectively cleaves aggrecan at the site between Glu^373 -Ala^374. An antibody capable of recognizing a C-side neoepitope generated by this cleavage was prepared in accordance with a usual method by repeating immunization of mouse with a conjugate of the synthetic peptide represented by SEQ ID NO:32 and KLH, 5 times. A PVDF membrane after transfer and blocking carried out in the same manner as in Example 7-2 was allowed to react with this antibody, allowed to react with a peroxidase-labeled goat anti-mouse IgG polyclonal antibody (mfd. by Tago) and then detected using an ECL western blotting detection system (mfd. by Amersham Pharmacia). As a result, the degraded product of recombinant aggrecan generated by MDTS6 reacted with the anti-aggrecanase neoepitope antibody, and molecular weight of the detected band is consistent with the molecular weight of the degraded product detected in Example 7-2 (FIG. 3). The same result was obtained by the BC-3 antibody which recognizes aggrecanase neoepitope (Hughes C. E. et al., Biochemical J., 305, 799-804, 1995). […]

[4] = compound added just before stimulation with 10 μM of all-trans retinoic acid

## CNC(=O)[C@H](Cc1ccc(OC)cc1)NC(=O)C(CC(C)C)C(CSC)C(=O)NO (stereo partly drawn) [compound D, N^α-[2-(1-hydroxycarbamoyl-2-methylsulfanylethyl)-4-methylpentanoyl]-N,O-dimethyltyrosineamide]
[1]; [4]
  IC50: 4.1 µM

## CNC(=O)C(Cc1ccc(OC)cc1)NC(=O)C(CC(C)C)C(CS)C(=O)NO (stereo not drawn) [compound A, N-^α-[2-(1-hydroxycarbamoyl-2-sulfanylethyl)-4-methylpentanoyl]-N,O-dimethyltyrosineamide]
[1]; [4]
  inhibition of proteoglycan degradation (in words, FIG. 8): inhibition of proteoglycan degradation in a concentration-dependent manner

## CC1=C(/C=C/C(C)=C/C=C/C(C)=C/C(=O)O)C(C)(C)CCC1 [all-trans retinoic acid, reference compound]
[2]
  expression of the MDTS6 mRNA: induced
[1]; stimulation with 0.01 to 10 ng/ml IL-1β or 0.1 to 10 μM all-trans retinoic acid, 0, 24, 48 hours of culturing
  release of proteoglycan (increase in radioactivity of culture supernatant): concentration-dependent and strong radioactivity, namely release of proteoglycan, was observed

## CNC(=O)[C@H](Cc1ccc(OC)cc1)NC(=O)C(CC(C)C)C(CSc1ccccc1)C(=O)NO (stereo partly drawn) [compound C, N^α-[2-(1-hydroxycarbamoyl-2-phenylsulfanylethyl)-4-methylpentanoyl]-N,O-dimethyltyrosineamide]
[1]; [4]
  IC50: 6.3 µM

B1: MDTS6Dis: protein of amino acids 1st to 518th position of SEQ ID NO:1 with the polypeptide of SEQ ID NO:33 added to the C-terminus (protein)
chain: FVSIPRYVETLVVADESMVKFHGADLEHYLLTLLATAARLYRHPSILNPINIVVVKVLLLRDRDSGPKVTGNAALTLRNFCAWQKKLNKVSDKHPEYWDTAILFTRQDLCGATTCDTLGMADVGTMCDPKRSCSVIEDDGLPSAFTTAHELGHVFNMPHDNVKVCEEVFGKLRANHMMSPTLIQIDRANPWSACSAAIITDFLDSGHGDCLLDQPSKPISLPEDLPGASYTLSQQCELAFGVGSKPCPYMQYCTKLWCTGKAKGQMVCQTRHFPWADGTSCGEGKLCLKGACVERHNLNKHRVDGSGSAAADYKDDDDK
[3]
  aggrecanase activity in culture supernatant: not detected

B2: MDTS6Pro: protein of amino acids 1st to 447th position of SEQ ID NO:1 with the polypeptide of SEQ ID NO:33 added to the C-terminus (protein)
chain: FVSIPRYVETLVVADESMVKFHGADLEHYLLTLLATAARLYRHPSILNPINIVVVKVLLLRDRDSGPKVTGNAALTLRNFCAWQKKLNKVSDKHPEYWDTAILFTRQDLCGATTCDTLGMADVGTMCDPKRSCSVIEDDGLPSAFTTAHELGHVFNMPHDNVKVCEEVFGKLRANHMMSPTLIQIDRANPWSACSAAIITDFLDSGHGDCLLDQPSKPISLPEDLPGASYTLSQQGSAAADYKDDDDK
[3]
  aggrecanase activity in culture supernatant: not detected

B3: MDTS6Cys: protein of amino acids 1st to 687th position of SEQ ID NO:1 with the polypeptide of SEQ ID NO:33 added to the C-terminus (protein)
chain: FVSIPRYVETLVVADESMVKFHGADLEHYLLTLLATAARLYRHPSILNPINIVVVKVLLLRDRDSGPKVTGNAALTLRNFCAWQKKLNKVSDKHPEYWDTAILFTRQDLCGATTCDTLGMADVGTMCDPKRSCSVIEDDGLPSAFTTAHELGHVFNMPHDNVKVCEEVFGKLRANHMMSPTLIQIDRANPWSACSAAIITDFLDSGHGDCLLDQPSKPISLPEDLPGASYTLSQQCELAFGVGSKPCPYMQYCTKLWCTGKAKGQMVCQTRHFPWADGTSCGEGKLCLKGACVERHNLNKHRVDGSWAKWDPYGPCSRTCGGGVQLARRQCTNPTPANGGKYCEGVRVKYRSCNLEPCPSSASGKSFREEQCEAFNGYNHSTNRLTLAVAWVPKYSGVSPRDKCKLICRANGTGYFYVLAPKVVDGTLCSPDSTSVCVQGKCIKAGCDGNLGSKKRFDKCGVCGGDNKSCKKVTGGSAAADYKDDDDK
[3]
  aggrecanase activity in culture supernatant: detected
